Values joined by “and” are separate entries in the source; they are usually repeats but may differ in a detail not shown here. Identical values can stand only once. Marks after values point to notes of the source that are not given here.
What was measured:
[1] = system: adult subjects with travelers' diarrhea; assay: Travelers' diarrhea Study 1: clinical response (TLUS, clinical cure); type: in vivo, human
Procedure: One study was conducted at clinical sites in Mexico, Guatemala, and Kenya (Study 1). The other study was conducted in Mexico, Guatemala, Peru, and India (Study 2). Stool specimens were collected before treatment and 1 to 3 days following the end of treatment to identify enteric pathogens. The predominant pathogen in both studies was Escherichia coli.
The clinical efficacy of rifaximin was assessed by the time to return to normal, formed stools and resolution of symptoms. The primary efficacy endpoint was time to last unformed stool (TLUS) which was defined as the time to the last unformed stool passed, after which clinical cure was declared. […] More patients treated with rifaximin were classified as clinical cures than were those in the placebo group.

[2] = system: subjects in remission from hepatic encephalopathy (HE); assay: First study (3001): time to first breakthrough overt HE episode, rifaximin 550 mg BID vs placebo, 6 months; type: in vivo, human
Description: Study 3001 was designed to continuously monitor patients to ensure the validity and completeness of HE breakthrough capture. Following screening, subjects entered a treatment period that included weekly visits and/or phone calls with patients and caregivers. Subjects were followed for the protocol specified 168 days. Complete capture of breakthrough events as well as mortality and provided assurance of the validity of the study outcome. Narratives for each subject experiencing HE breakthrough, AE's resulting in termination, SAEs or death were provided in the NDA.
Eligible subjects had 2 episodes of HE associated with chronic liver disease in the previous 6 months.
Patients had MELD scores of either […] (27%) or 11 to 18 (64%) at baseline. No patients were enrolled with a MELD score of >25. Nine percent of the patients were Child-Pugh Class C. Lactulose was concomitantly used by 91% of the patients in each treatment arm of the study. Per the study protocol, patients were withdrawn from the study after experiencing a breakthrough HE episode.
The primary endpoint was the time to first breakthrough overt HE episode. A breakthrough overt HE episode was defined as a marked deterioration in neurological function and an increase of Conn score to Grade ≧2. In patients with a baseline Conn score of 0, a breakthrough overt HE episode was defined as an increase in Conn score of 1 and asterixis grade of 1.
An efficacy endpoint was the time to first breakthrough overt HE episode. A breakthrough overt HE episode was defined as an increase of Conn score to Grade ≧2 (e.g., 0 or 1 to ≧2) or an increase in Conn and asterixis score of 1 grade each for those subjects who entered the study with a Conn score of 0. Time to breakthrough overt HE episode was the duration from time of first dose of study drug to the first breakthrough overt HE episode. […] Subjects who terminated early for reasons other than breakthrough overt HE were contacted at 6 months from randomization to determine if subjects had experienced a breakthrough overt HE episode or other outcome (e.g., mortality status); and, if the subject had no breakthrough overt HE event prior to contact, he/she was censored at the time of contact. […] Subjects in the study had ≧2 episodes of overt HE equivalent to Conn score ≧2 within 6 months prior to screening (i.e., subjects had documented recurrent, overt HE). At the baseline assessment, subjects were in remission with a Conn score of 0 or 1. A breakthrough overt HE episode, as defined above, was a marked deterioration in neurological function.
Presented herein are the results of the first study and second study. […] The primary efficacy endpoint was the time to breakthrough overt HE. Breakthrough overt HE was defined as an increase of Conn score to Grade ≧2 (e.g., 0 or 1 to ≧2) or an increase in Conn and asterixis score of 1 grade each for those subjects who entered the study with a Conn score of 0. Subjects discontinued from the study at the time of breakthrough overt HE episode. After participation in the first study, subjects had the option to enroll in the open-label, treatment-extension study (the second study).
FIG. 1 illustrates Kaplan-Meier estimates of time to first breakthrough overt HE episode by treatment group in the ITT population. Table 18 presents Kaplan-Meier estimates of the proportions of subjects who experienced breakthrough overt HE over the course of the Treatment Period and results of statistical analyses. […] Subjects who terminated early for reasons other than breakthrough overt HE (e.g., liver transplant, AE, subject request) were contacted at 6 months from date of randomization to determine if subjects had experienced a breakthrough overt HE episode or other outcome (e.g., mortality status). Subjects without breakthrough overt HE were censored at the time of contact or death, whichever was earlier.

rat hepatocyte = type: cell-based
[3] = system: subjects with a history of recurrent, overt, episodic HE; conditions: human, in vivo
Description: At the time of this interim analysis, TEAEs were reported in 230 subjects (86.5%). The most common TEAEs (e.g., in ≧10% of total subjects) experienced by subjects were the following: peripheral edema (15.8%); urinary tract infection and nausea (12.8% each); and abdominal pain and ascites (10.5% each).
Treatment-emergent SAEs were experienced by 47.4% of subjects.

## CO[C@H]1/C=C/O[C@@]2(C)Oc3c(C)c(O)c4c(O)c(c5c(nc6cc(C)ccn65)c4c3C2=O)NC(=O)/C(C)=C\C=C\[C@H](C)[C@H](O)[C@@H](C)[C@@H](O)[C@@H](C)[C@H](OC(C)=O)[C@@H]1C [rifaximin, (2S,16Z,18E,20S,21S,22R,23R,24R,25 S,26S,27S,28E)-5,6,21,23,25-pentahydroxy-27-methoxy-2,4,11,16,20,22,24,26-octamethyl-2,7-(epoxypentadeca-[1,11,13]trienimino)benzofuro[4,5-e]pyrido[1,2-á]-benzimidazole-1,15(2H)-dione,25-acetate]
[1]; 200 mg TID 3 days, ITT n = 125
  Median TLUS: 32.5 h
[1]; ITT
  Difference in rates of clinical cure vs placebo: 18.7^b
[1]; ITT n = 125
  Clinical cure: 99 (79.2) n (%)
[2]; 550 mg BID
  reduction in risk of breakthrough overt HE vs placebo, adjusted for prognostic factors: 60%
[2]; 550 mg BID, 6-month treatment
  reduction in risk of breakthrough overt HE vs placebo: 58% and 57.9%
[2]; 550 mg BID, 6 months
  subjects with breakthrough overt HE episodes: 22%
[2]; 550 mg BID, up to Day 170
  subjects with breakthrough overt HE episodes: 31 of 140
[2]; N = 140; days: r10 [0-28), r11 [28-56), r12 [56-84), r13 [84-140), r14 [140-168), r15 >=168
  Survival: 1.0000 and 0.9071 and 0.8783 and 0.8344 and 0.7820 and 0.7740
[2]; North America versus Russia
  time to first breakthrough overt HE by region: highly significant protective effect
[2]; by Baseline MELD Score Level, N = 11, days r10-r15 as E1301
  Survival: 1.0000 and 0.9091 and 0.6364
[2]; by Baseline MELD Score Level, N = 85, days r10-r15 as E1201
  Survival: 1.0000 and 0.9059 and 0.8822 and 0.8459 and 0.7713 and 0.7580
[2]; by Prior Lactulose Use, N = 123, days r10-r15 as E801
  Survival: 1.0000 and 0.9024 and 0.8696 and 0.8278 and 0.7678 and 0.7586
[2]; by Prior Lactulose Use, N = 127, days r11-r21 as E1401
  Survival: 1.0000 and 0.9055 and 0.8737 and 0.8252 and 0.7754 and 0.7666
[2]; component of breakthrough HE
  patients experiencing a Conn Score of >=2: 20%
  patients with worsening of Conn and asterixis grade of 1 each: 2%
[2]; first study rifaximin group
  rate of breakthrough HE episodes adjusted for exposure: 0.62 events/PEY
[2]; in vivo
  patients with zero events over 6 months: 78%
  time to breakthrough HE events vs placebo (FIG. 2): increased time to breakthrough HE events
Rat hepatocyte
  genotoxicity: not genotoxic
[3]
  TEAE abdominal pain: 10.5%
  TEAE ascites: 10.5%
  TEAE nausea: 12.8%
  TEAE peripheral edema: 15.8%
  TEAE urinary tract infection: 12.8%
  subjects with HE counted for the safety analyses: 21.4%
  subjects with TEAEs: 86.5%
  subjects with at least 1 severe TEAE: 40.2%
  subjects with treatment-emergent SAEs: 47.4%

Reference: patent US9629828B2, “Methods of treating traveler's diarrhea and hepatic encephalopathy” (priority 2008, dated 2017)
